Source: the kinase profiling compilation of Christmann-Franck et al. (2016)

How the values were obtained:
Assay in all cases: KINOMEscan competition binding
GAK (human) = GAK (human) (UniProt O14976); conditions: compound 10.0 µM
TLK1 (human) = TLK1 (human) (UniProt Q9UKI8); conditions: compound 10.0 µM
TNK2 (human) = TNK2 (human) (UniProt Q07912); conditions: compound 10.0 µM
CDC2L2 (human) = CDC2L2 (human) (UniProt Q9UQ88); conditions: compound 10.0 µM
[1] = tested on: RET (human), P07949 [V804M]; conditions: compound 10.0 µM
PIK3C2G (human) = PIK3C2G (human) (UniProt O75747); conditions: compound 10.0 µM
OXSR1 (human) = OXSR1 (human) (UniProt O95747); conditions: compound 10.0 µM
MARK3 (human) = MARK3 (human) (UniProt P27448); conditions: compound 10.0 µM
[2] = tested on: MET (human), P08581 [Y1235D]; conditions: compound 10.0 µM
PIP4K2C (human) = PIP4K2C (human) (UniProt Q8TBX8); conditions: compound 10.0 µM
PDGFRA (human) = PDGFRA (human) (UniProt P16234); conditions: compound 10.0 µM
MAP4K1 (human) = MAP4K1 (human) (UniProt Q92918); conditions: compound 10.0 µM
FYN (human) = FYN (human) (UniProt P06241); conditions: compound 10.0 µM
PKN1 (human) = PKN1 (human) (UniProt Q16512); conditions: compound 10.0 µM
PRKCI (human) = PRKCI (human) (UniProt P41743); conditions: compound 10.0 µM
LIMK2 (human) = LIMK2 (human) (UniProt P53671); conditions: compound 10.0 µM
IRAK4 (human) = IRAK4 (human) (UniProt Q9NWZ3); conditions: compound 10.0 µM
TESK1 (human) = TESK1 (human) (UniProt Q15569); conditions: compound 10.0 µM
CDK17 (human) = CDK17 (human) (UniProt Q00537); conditions: compound 10.0 µM
STK17A (human) = STK17A (human) (UniProt Q9UEE5); conditions: compound 10.0 µM
ICK (human) = ICK (human) (UniProt Q9UPZ9); conditions: compound 10.0 µM
STK10 (human) = STK10 (human) (UniProt O94804); conditions: compound 10.0 µM
SRPK1 (human) = SRPK1 (human) (UniProt Q96SB4); conditions: compound 10.0 µM
VRK2 (human) = VRK2 (human) (UniProt Q86Y07); conditions: compound 10.0 µM
MAPK9 (human) = MAPK9 (human) (UniProt P45984); conditions: compound 10.0 µM
RPS6KA2 KD2 (human) = RPS6KA2 KD2 (human) (UniProt Q15349)
PRKX (human) = PRKX (human) (UniProt P51817); conditions: compound 10.0 µM
CDK18 (human) = CDK18 (human) (UniProt Q07002); conditions: compound 10.0 µM
TNK1 (human) = TNK1 (human) (UniProt Q13470)
MATK (human) = MATK (human) (UniProt P42679); conditions: compound 10.0 µM
[3] = target: JAK3 JH1 catalytic (human) (UniProt P52333); conditions: compound 10.0 µM
LIMK1 (human) = LIMK1 (human) (UniProt P53667); conditions: compound 10.0 µM
ULK3 (human) = ULK3 (human) (UniProt Q6PHR2); conditions: compound 10.0 µM
MAP2K6 (human) = MAP2K6 (human) (UniProt P52564); conditions: compound 10.0 µM
CaMK1 (human) = CaMK1 (human) (UniProt Q14012); conditions: compound 10.0 µM
PRKD2 (human) = PRKD2 (human) (UniProt Q9BZL6); conditions: compound 10.0 µM
NEK6 (human) = NEK6 (human) (UniProt Q9HC98); conditions: compound 10.0 µM
FES (human) = FES (human) (UniProt P07332); conditions: compound 10.0 µM
[4] = tested on: EGFR (human), P00533 [G719S]; conditions: compound 10.0 µM
CAMK2A (human) = CAMK2A (human) (UniProt Q9UQM7); conditions: compound 10.0 µM
PIK3CA (human) = PIK3CA (human) (UniProt P42336); conditions: compound 10.0 µM

Sequence of TNK1 (human) (Q13470 whole entry, looked up): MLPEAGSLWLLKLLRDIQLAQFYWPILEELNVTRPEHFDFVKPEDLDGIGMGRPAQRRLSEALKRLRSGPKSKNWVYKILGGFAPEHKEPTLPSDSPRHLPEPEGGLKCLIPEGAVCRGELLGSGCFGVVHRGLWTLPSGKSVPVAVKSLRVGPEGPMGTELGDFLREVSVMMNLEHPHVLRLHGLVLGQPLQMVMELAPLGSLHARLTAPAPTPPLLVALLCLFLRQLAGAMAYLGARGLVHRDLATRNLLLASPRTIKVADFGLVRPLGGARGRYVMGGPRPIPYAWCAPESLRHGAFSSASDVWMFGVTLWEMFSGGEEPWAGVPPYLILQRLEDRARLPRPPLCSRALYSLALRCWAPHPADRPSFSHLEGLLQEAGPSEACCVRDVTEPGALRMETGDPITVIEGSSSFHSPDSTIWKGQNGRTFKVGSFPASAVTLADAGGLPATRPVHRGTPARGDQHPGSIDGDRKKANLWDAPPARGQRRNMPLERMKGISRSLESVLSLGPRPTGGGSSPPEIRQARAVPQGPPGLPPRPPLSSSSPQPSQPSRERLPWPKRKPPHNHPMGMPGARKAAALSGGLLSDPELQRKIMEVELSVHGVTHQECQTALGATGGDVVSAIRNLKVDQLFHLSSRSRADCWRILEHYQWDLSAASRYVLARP
Sequence of RPS6KA2 KD2 (human) (Q15349 whole entry, looked up): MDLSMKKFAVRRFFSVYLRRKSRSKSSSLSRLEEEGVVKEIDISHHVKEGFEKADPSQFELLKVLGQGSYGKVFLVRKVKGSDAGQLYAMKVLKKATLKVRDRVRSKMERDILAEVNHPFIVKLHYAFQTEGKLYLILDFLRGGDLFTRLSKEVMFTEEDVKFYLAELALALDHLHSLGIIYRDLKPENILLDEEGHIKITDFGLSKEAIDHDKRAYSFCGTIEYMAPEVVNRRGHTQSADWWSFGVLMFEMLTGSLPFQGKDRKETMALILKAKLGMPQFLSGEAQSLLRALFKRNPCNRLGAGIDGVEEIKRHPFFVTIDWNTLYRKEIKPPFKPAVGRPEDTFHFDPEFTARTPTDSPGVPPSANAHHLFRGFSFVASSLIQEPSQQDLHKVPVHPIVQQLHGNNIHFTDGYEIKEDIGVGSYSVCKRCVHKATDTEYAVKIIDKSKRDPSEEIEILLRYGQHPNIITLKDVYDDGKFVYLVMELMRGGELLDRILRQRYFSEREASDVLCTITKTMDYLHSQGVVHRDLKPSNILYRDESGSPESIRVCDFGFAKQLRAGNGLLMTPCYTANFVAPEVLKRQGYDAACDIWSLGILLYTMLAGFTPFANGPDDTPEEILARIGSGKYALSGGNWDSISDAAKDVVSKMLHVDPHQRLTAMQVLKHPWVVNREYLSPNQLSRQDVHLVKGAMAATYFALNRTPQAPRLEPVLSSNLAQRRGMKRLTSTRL
Sequence of RET (human), P07949 [V804M] (P07949 whole entry V804M, looked up): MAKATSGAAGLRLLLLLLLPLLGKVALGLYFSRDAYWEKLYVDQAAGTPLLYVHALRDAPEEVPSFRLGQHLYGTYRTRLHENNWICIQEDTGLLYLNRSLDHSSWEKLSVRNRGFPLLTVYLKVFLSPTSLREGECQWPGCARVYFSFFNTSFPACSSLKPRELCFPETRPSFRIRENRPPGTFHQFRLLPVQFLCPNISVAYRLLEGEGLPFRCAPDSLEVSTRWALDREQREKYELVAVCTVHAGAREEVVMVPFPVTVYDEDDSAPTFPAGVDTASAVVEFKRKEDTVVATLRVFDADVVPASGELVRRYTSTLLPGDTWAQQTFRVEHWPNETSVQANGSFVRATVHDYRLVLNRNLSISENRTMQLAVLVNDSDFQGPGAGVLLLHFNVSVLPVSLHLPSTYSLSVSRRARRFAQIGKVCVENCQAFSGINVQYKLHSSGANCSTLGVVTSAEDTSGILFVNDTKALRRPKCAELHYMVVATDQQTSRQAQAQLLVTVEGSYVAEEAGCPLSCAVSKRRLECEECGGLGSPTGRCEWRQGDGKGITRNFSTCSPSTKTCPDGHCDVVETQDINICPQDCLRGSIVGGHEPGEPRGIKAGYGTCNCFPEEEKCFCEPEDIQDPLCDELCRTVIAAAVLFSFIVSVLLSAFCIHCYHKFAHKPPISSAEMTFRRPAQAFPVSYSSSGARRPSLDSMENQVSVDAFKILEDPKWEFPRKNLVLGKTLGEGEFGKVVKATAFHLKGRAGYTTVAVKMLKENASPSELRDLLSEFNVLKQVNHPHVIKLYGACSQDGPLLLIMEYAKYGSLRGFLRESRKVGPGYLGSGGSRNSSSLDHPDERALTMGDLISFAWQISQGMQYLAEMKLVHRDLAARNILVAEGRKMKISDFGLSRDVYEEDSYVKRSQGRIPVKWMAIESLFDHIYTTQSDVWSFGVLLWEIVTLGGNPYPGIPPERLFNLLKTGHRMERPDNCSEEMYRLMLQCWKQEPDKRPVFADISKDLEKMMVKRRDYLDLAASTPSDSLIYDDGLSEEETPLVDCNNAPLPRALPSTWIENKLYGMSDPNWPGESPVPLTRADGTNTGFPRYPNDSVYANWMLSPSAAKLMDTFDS
Sequence of SRPK1 (human) (Q96SB4 whole entry, looked up): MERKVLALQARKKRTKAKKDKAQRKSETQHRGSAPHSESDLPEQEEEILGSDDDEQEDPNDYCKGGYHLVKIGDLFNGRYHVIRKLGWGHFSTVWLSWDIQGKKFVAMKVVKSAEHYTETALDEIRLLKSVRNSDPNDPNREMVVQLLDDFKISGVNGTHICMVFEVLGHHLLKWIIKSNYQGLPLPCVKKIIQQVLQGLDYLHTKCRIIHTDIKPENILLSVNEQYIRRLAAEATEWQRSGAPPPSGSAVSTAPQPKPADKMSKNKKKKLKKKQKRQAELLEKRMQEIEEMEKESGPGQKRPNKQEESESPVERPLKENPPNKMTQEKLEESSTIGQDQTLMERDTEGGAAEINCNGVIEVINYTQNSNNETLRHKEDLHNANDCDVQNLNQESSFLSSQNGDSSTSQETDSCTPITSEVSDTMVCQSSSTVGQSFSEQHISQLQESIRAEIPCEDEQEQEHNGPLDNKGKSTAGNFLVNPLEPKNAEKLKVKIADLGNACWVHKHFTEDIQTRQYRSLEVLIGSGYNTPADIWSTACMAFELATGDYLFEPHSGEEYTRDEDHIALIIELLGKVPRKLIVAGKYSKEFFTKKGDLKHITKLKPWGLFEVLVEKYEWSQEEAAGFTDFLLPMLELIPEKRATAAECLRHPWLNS
Sequence of CDC2L2 (human) (Q9UQ88 whole entry, looked up): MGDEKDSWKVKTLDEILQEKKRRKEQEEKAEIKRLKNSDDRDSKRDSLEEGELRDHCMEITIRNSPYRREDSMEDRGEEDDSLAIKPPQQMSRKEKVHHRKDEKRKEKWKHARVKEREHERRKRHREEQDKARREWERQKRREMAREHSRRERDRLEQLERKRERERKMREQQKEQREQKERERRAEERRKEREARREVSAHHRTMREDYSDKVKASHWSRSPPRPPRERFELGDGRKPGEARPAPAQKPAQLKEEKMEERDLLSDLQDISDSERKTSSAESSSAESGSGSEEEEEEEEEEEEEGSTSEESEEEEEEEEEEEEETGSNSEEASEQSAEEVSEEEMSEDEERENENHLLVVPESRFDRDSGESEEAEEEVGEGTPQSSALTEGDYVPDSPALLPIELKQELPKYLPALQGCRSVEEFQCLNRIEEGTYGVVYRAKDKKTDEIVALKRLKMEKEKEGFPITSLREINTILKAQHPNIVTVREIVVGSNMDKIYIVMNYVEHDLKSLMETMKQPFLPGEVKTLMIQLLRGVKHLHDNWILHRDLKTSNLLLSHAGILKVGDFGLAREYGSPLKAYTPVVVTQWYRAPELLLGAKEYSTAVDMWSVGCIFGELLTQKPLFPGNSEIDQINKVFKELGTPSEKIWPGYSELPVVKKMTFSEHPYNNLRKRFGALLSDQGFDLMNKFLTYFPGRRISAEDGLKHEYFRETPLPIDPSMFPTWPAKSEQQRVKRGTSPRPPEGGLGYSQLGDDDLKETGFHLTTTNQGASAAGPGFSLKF
Sequence of MAP2K6 (human) (P52564 whole entry, looked up): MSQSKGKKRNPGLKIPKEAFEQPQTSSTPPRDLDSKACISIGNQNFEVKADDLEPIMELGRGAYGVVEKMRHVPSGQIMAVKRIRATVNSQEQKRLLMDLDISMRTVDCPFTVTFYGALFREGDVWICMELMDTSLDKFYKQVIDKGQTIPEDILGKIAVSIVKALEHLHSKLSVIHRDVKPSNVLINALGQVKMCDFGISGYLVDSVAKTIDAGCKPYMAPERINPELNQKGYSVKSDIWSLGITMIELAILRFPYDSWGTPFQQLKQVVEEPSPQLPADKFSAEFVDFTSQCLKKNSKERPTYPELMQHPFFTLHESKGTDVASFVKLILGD
Sequence of FYN (human) (P06241 whole entry, looked up): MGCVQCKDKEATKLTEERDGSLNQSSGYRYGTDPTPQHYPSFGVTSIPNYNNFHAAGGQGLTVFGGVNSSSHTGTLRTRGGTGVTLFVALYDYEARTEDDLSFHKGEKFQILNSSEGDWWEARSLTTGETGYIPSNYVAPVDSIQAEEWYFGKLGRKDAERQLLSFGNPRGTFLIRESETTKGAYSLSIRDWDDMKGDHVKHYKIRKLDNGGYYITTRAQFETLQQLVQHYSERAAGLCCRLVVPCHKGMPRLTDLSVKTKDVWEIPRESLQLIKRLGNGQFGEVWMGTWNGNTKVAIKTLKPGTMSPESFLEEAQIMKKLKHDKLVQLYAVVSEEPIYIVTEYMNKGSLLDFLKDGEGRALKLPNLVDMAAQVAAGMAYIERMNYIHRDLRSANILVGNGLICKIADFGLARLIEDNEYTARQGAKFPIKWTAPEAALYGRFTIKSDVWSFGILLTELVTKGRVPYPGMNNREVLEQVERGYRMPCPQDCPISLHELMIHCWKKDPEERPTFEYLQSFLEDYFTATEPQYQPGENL

`COc1cc(C(=O)N2CCC(N3CCN(C)CC3)CC2)ccc1Nc1ncc2c(n1)N(C)c1ccccc1C(=O)N2C` was tested, and the kinase still bound, per cent of control (GAK (human)) was 16%, the kinase still bound, per cent of control (TLK1 (human)) was 100% and the kinase still bound, per cent of control (TNK2 (human)) was 18%. For the same compound, the residual activity (CDC2L2 (human)) was 82%, the kinase still bound, per cent of control [1] was 80% and the kinase still bound, per cent of control (PIK3C2G (human)) was 100%. For the same compound, the kinase still bound, per cent of control (OXSR1 (human)) was 88%, the kinase still bound, per cent of control (MARK3 (human)) was 98% and the kinase still bound, per cent of control [2] was 100%. The kinase still bound, per cent of control (PIP4K2C (human)) was 40%, the kinase still bound, per cent of control (PDGFRA (human)) was 100% and the kinase still bound, per cent of control (MAP4K1 (human)) was 100%. It also gave a kinase still bound, per cent of control (FYN (human)) of 100%, a kinase still bound, per cent of control (PKN1 (human)) of 100% and a kinase still bound, per cent of control (PRKCI (human)) of 100%. The kinase still bound, per cent of control (LIMK2 (human)) was 100%, the kinase still bound, per cent of control (IRAK4 (human)) was 83% and the kinase still bound, per cent of control (TESK1 (human)) was 82%. The residual activity (CDK17 (human)) was 83%, the kinase still bound, per cent of control (STK17A (human)) was 100% and the kinase still bound, per cent of control (ICK (human)) was 90%. It also gave a kinase still bound, per cent of control (STK10 (human)) of 100%, a kinase still bound, per cent of control (SRPK1 (human)) of 94% and a kinase still bound, per cent of control (VRK2 (human)) of 99%. It also gave a kinase still bound, per cent of control (MAPK9 (human)) of 94%, a Kd (RPS6KA2 KD2 (human)) of 1000 nM and a kinase still bound, per cent of control (RPS6KA2 KD2 (human); compound 10.0 µM) of 7.5%. It also gave a kinase still bound, per cent of control (PRKX (human)) of 99%, a residual activity (CDK18 (human)) of 100% and a Kd (TNK1 (human)) of 23 nM. For the same compound, the kinase still bound, per cent of control (TNK1 (human); compound 10.0 µM) was 2.8%, the kinase still bound, per cent of control (MATK (human)) was 100% and the kinase still bound, per cent of control [3] was 100%. For the same compound, the kinase still bound, per cent of control (LIMK1 (human)) was 95%, the kinase still bound, per cent of control (ULK3 (human)) was 100% and the kinase still bound, per cent of control (MAP2K6 (human)) was 83%. It also gave a kinase still bound, per cent of control (CaMK1 (human)) of 55%, a kinase still bound, per cent of control (PRKD2 (human)) of 59% and a kinase still bound, per cent of control (NEK6 (human)) of 76%. For the same compound, the kinase still bound, per cent of control (FES (human)) was 84%, the kinase still bound, per cent of control [4] was 86% and the kinase still bound, per cent of control (CAMK2A (human)) was 21%. It also gave a kinase still bound, per cent of control (PIK3CA (human)) of 74%.
